Patent publication US10544156B2, “Hemi-synthetic trilobine analogs for use as a drug” (PIERRE FABRE MEDICAMENT, priority 2015, dated 2020)

Experiments:
P73 promoter in HCT116 = test: C5 DNA methylation analysis of P73 promoter; format: cell-based, human; details: after 7 days, at 0.32 μM
Method: (§1) Cancer cell lines (colon HCT116 or leukaemia KG1) were treated with the compounds as indicated in the Data Tables and then analysed as following.
(§2) DNA was isolated from cultured cells using the DNeasy Blood and Tissue Kit according to the manufacturer's specifications (Qiagen). DNA bisulphite conversion was performed on 2 μg of DNA using the EZ DNA Methylation-Gold Kit according to the manufacturer's specifications (Zymo Research) and bisulfited DNA was eluted with 10 μL of water.
(§3) Two different techniques were used to analyse the DNA methylation profile after bisulfite conversion of genomic DNA: (A) cloning and sequencing or (B) COBRA. The primers for each promoter are specified in Table 4.
(§4) Sequencing of bisulfite-treated DNA allowing resolution of the methylation state of every cytosine in the target sequence, at single molecule resolution, is considered as the “gold standard” for DNA methylation analysis.
(§5) Bisulfite-specific primers with a minimum length of 18 bp were designed using Primer 3 program. […]
(§6) PCR amplicons were cloned with the StrataClone Ultra Blunt PCR Cloning Kit (Agilent Technologies), according to the manufacturers' instructions and up to 24 clones were picked for sequencing. […] Electrophoregram files and methylation signals at a given CpG site were quantified using the BISMA software as described above.

[1] = test system: P15 promoter in leukaemia KG1 cells; test: C5 DNA methylation analysis of CDKN2B (P15) promoter; format: cell-based, human; details: after 3 days, at 0.32 μM
Method: as §1, §2, §3, §4, §5, §6

SMILES	Demethylation P73*/HCT116 (P73 promoter in HCT116)	Demethylation P15/KG1 [1] [% after]
CNC(=O)N1CCc2cc(OC)c3c4c2[C@@H]1Cc1ccc(cc1)Oc1cc(ccc1OC)C[C@H]1c2cc(c(cc2CCN1C)O3)O4 [Product 44]	*−17% after 7 days	
CCN(CC)CCCNC(=S)N1CCc2cc3c4cc2[C@@H]1Cc1ccc(OC)c(c1)Oc1ccc(cc1)C[C@H]1c2c(cc(OC)c(c2O4)O3)CCN1C(=S)NCCCN(CC)CC [Product 41]	*−24% after 7 days	
COc1ccc2cc1Oc1ccc(cc1)C[C@@H]1NCCc3cc(OC)c4c(c31)Oc1cc3c(cc1O4)CCN(C)[C@H]3C2 [Trilobine (1), trilobine]		−25
